Laboratory results reported in ChEMBL document CHEMBL6121055, “Strategic Mutations in Designer Native Peptides Combat NLRP3 Inflammasome Activation in Neurodegenerative Disorders” (J Med Chem, 2025).
The source made the active and inactive calls. No cut-off for these calls is given here. Residues, ends and D or L forms follow the SMILES beside them.

Experiments:
HEK-293T = assay: Cytotoxicity against HEK293T cells assessed as reduction in cell viability upto 100 uM measured after 24 hrs by MTT assay; type: toxicity, cell-based; details: human
N9 [1] = assay: Inhibition of NLRP3 inflammasome activation mediated pyroptosis in LPS/ATP-stimulated mouse N9 cells assessed as reduction in cell death measured after 24 hrs by MTT assay; type: cell-based; details: dose 5-30 µM
[2] = Inhibition of NLRP3 inflammasome activation in LPS/ATP-stimulated mouse N9 cells assessed as inhibition of IL-1beta mRNA expression by qRT-PCR analysis; type: cell-based
N9 [3] = assay: Inhibition of NLRP3 inflammasome activation in LPS/ATP-stimulated mouse N9 cells assessed as reduction in IL-1beta secretion at 10 to 20 uM preincubated with LPS for 4 hrs followed by compound addition for 30 mins and measured after ATP stimulation for 45 mins by ELISA; type: cell-based; details: dose 10-20 µM, time 75.0 min
[4] = target: Apoptosis-associated speck-like protein containing a CARD (Homo sapiens, UniProt Q9ULZ3); assay: Binding affinity to ASC (unknown origin) assessed as shift in ASC protein band at 0.5 to 2 uM by native PAGE analysis; details: dose 0.5-2 µM
N9 [5] = assay: Inhibition of NLRP3 inflammasome activation mediated ROS production in LPS/ATP-stimulated mouse N9 cells preincubated with LPS for 4 hrs followed by compound addition for 30 mins and measured after ATP stimulation for 1 hrs by DCFDA staining based flow cytometric analysis; type: cell-based; details: dose 10-30 µM, time 1.5 hrs
N9 [6] = assay: Inhibition of NLRP3 inflammasome activation mediated mitochondrial damage in LPS/ATP-stimulated mouse N9 cells assessed as reduction in mitochondrial ROS level by MitoSOX red staining based confocal microscopic analysis; type: cell-based; details: dose 10-20 µM
N9 [7] = assay: Inhibition of NLRP3 inflammasome activation mediated pyroptosis in LPS/amyloid-beta-stimulated mouse N9 cells assessed as reduction in cell death at 5 to 30 uM by MTT assay; type: cell-based; details: dose 5-30 µM
N9 [8] = assay: Inhibition of NLRP3 inflammasome activation mediated pyroptosis in LPS/tau-stimulated mouse N9 cells assessed as reduction in cell death at 5 to 30 uM by MTT assay; type: cell-based; details: dose 5-30 µM
N9 [9] = assay: Inhibition of NLRP3 inflammasome activation mediated pyroptosis in LPS/alpha-synuclein-stimulated mouse N9 cells assessed as reduction in cell death at 5 to 30 uM by MTT assay; type: cell-based; details: dose 5-30 µM
N9 [10] = assay: Inhibition of NLRP3 inflammasome activation mediated in LPS/alpha-synuclein-stimulated mouse N9 cells assessed as decrease in mitochondrial ROS generation by flow cytometric analysis; type: cell-based; details: dose 5-30 µM

Chain of Apoptosis-associated speck-like protein containing a CARD (Q9ULZ3 whole entry): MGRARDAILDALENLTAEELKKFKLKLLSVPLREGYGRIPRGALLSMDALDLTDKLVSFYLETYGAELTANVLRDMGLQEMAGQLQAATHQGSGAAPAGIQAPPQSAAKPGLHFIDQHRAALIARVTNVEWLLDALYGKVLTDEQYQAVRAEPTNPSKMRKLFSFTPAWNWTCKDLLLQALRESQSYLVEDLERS

IC50 [2]: 2.57 µM
Activity [4]: Active
Compound: CC[C@H](C)[C@H](NC(=O)[C@H](C)NC(=O)[C@H](C)NC(=O)[C@H](CC(C)C)NC(=O)[C@@H](NC(=O)[C@H](Cc1c[nH]c2ccccc12)NC(=O)[C@@H](N)C(C)C)[C@@H](C)CC)C(=O)N[C@@H](CC(N)=O)C(=O)N[C@@H](CCCNC(=N)N)C(=O)N[C@@H](CCCNC(=N)N)C(=O)O (H-VWILAAINRR-OH)
Activity (HEK-293T): Non-toxic
inhibition (N9 [1]): Dose-dependent-effect
inhibition (N9 [3]): Active
inhibition (N9 [5]): Dose-dependent-effect
inhibition (N9 [6]): Dose-dependent-effect
inhibition (N9 [7]): Active
inhibition (N9 [8]): Active
inhibition (N9 [9]): Active
inhibition (N9 [10]): Dose-dependent-effect
